Results as given in US20240262848A1, “HETEROCYCLIC COMPOUNDS, COMPOSITIONS THEREOF, AND METHODS OF TREATMENT THEREWITH” (BeiGene, Ltd., priority 2022, published 2024).

Tests used:
[1] = biological target: GST-tagged GDP-loaded KRAS G12D (amin acids 1-188) (Homo sapiens, UniProt P01116, G12D); assay: KRAS G12D probe displacement assay (TR-FRET); type: binding; settings: Table 5; KRAS G12D 0.5 nM, biotinylated probe 2 4 nM
Method: Plates are incubated at 24° C. for 1 hr.

[2] = test system: pERK1/2(THR202/TYR204) level in AsPC-1 cell line; assay: KRAS G12D pERK assay in AsPC-1 cells (HTRF); type: cell-based; settings: Homo sapiens, ASPC1, Table 5, 2 h compound treatment
Method: AsPC-1 cell line was used in this study. Cells were maintained in RPMI-1640 supplemented with 10% fetal bovine serum (Thermo Fisher), 50 units/ml, penicillin and streptomycin (Thermo Fisher) and kept at 37° C. in a humidified atmosphere of 5% CO2 in air. Cells were reinstated from frozen stocks that were laid down within 30 passages from the original cells purchased. 30000 cells per well were seeded into a 96-well plate and incubated overnight. Cells were treated with a 10-point dilution series. The final compound concentration is from 0 to 10 μM. After 2 h compound treatment, cells were lysed, and the pERK1/2(THR202/TYR204) level in the cell lysates was detected by HTRF kit (Cisbio). In brief, a total of 16 μL of cell lysate from each well of a 96-well plate was transferred to a 384-well white assay plate. Lysate from each well was incubated with 2 μL of Eu3+-cryptate (donor) labeled anti-phospho-ERK1/2 and 2 μL of D2 (acceptor) labeled anti-phospho-ERK1/2 antibodies (Cisbio) overnight in dark at room temperature. When the donor and acceptor are in close proximity, excitation of the donor with laser triggers a Fluorescence Resonance Energy Transfer (FRET) towards the acceptor, which in turn fluoresces at 655 nm wavelength. FRET signals were measured using a PHERAstar FSX reader (BMG Labtech). IC50 determination was performed by fitting the curve of percent inhibition versus the log of the inhibitor concentration using Dotmatics.

[3] = test system: pERK1/2(THR202/TYR204) level in SW620 cell line; assay: KRAS G12V pERK assay in SW620 cells (HTRF); type: cell-based; settings: Homo sapiens, SW-620, Table 4, 2 hrs compound treatment
Method: SW620 cell line was used in this study. Cells were maintained in RPMI 1640 supplemented with 10% fetal bovine serum (Thermo Fisher), 50 units/mL penicillin and streptomycin (Thermo Fisher) and kept at 37° C. in a humidified atmosphere of 5% CO2 in air. Cells were reinstated from frozen stocks that were laid down within 30 passages from the original cells purchased. 40000 cells per well were seeded into a 96-well plate and incubated overnight. Cells were treated with a 10-point dilution series. The final compound concentration is from 0 to 10 μM. After 2 hrs compound treatment, cells were lysed, and the pERK1/2(THR202/TYR204) level in the cell lysates was detected by HTRF kit (Cisbio). In brief, a total of 16 μL of cell lysate from each well of a 96-well plate was transferred to a 384-well white assay plate. Lysate from each well was incubated with 2 μL of Eu3+-cryptate (donor) labeled anti-phospho-ERK1/2 and 2 μL of D)2 (acceptor) labeled anti-phospho-ERK1/2 antibodies (Cisbio) overnight in dark at room temperature. When donor and acceptor are in close proximity, excitation of the donor with laser triggers a Fluorescence Resonance Energy Transfer (FRET) towards the acceptor, which in turn fluoresces at 655 nm wavelength. FRET signals were measured using a PHERAstar FSX reader (BMG Labtech). IC50 determination was performed by fitting the curve of percent inhibition versus the log of the inhibitor concentration using Dotmatics.

[4] = biological target: GST-tagged GDP-loaded KRAS G12V (amino acids 1-169) (Homo sapiens, UniProt P01116, G12V); assay: KRAS G12V probe displacement assay (TR-FRET); type: binding; settings: Table 4; KRAS G12V 2 nM, biotinylated probe 2 2.5 nM
Chain of GST-tagged GDP-loaded KRAS G12V (amino acids 1-169) (P01116 1-169 isoform P01116-2 G12V): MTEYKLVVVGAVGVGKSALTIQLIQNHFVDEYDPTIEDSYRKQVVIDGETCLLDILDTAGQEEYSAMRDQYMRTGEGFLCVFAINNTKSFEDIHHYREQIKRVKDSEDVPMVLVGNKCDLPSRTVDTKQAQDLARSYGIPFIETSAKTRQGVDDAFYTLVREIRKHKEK
Method: Plates are incubated at 24 °C for 1 hr. […] After 1 hr incubation at 24° C.

Chain of GST-tagged GDP-loaded KRAS G12D (amin acids 1-188) (P01116 1-188 isoform P01116-2 G12D): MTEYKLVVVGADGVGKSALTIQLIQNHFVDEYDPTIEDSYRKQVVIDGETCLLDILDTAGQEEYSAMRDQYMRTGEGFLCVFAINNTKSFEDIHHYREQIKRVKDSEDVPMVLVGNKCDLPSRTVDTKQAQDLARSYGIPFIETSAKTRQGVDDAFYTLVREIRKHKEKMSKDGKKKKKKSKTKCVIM

| SMILES | IC50 [1] [nM] | IC50 [2] [nM] | IC50 [3] [nM] | IC50 [4] [nM] |
| --- | --- | --- | --- | --- |
| CC(CN(C)C)N1CCCOc2nc(-c3cc(N)cc(Cl)c3C(F)(F)F)c(F)c3nc(OC[C@@]45CCCN4C[C@H](F)C5)nc1c23 (stereo partly drawn) [Example 40, 3-chloro-5-(11-(1-(dimethylamino)propan-2-yl)-4-fluoro-2-(((2R,7aS)-2-fluorotetrahydro-1H-pyrrolizin-7a(5H)-yl)methoxy)-8,9,10,11-tetrahydro-7-oxa-1,3,6,11-tetraazacycloocta[de]naphthalen-5-yl)-4-(trifluoromethyl)aniline] | 7.6 | 2000 | – | – |
| CN(C)CCN1c2nc(OC[C@@]34CCCN3C[C@H](F)C4)nc3c(F)c(-c4cc(N)cc(Cl)c4C(F)(F)F)nc(c23)OCCC12CC2 [Example 43, 3-chloro-5-(11-(2-(dimethylamino)ethyl)-4-fluoro-2-(((2R,7aS)-2-fluorotetrahydro-1H-pyrrolizin-7a(5H)-yl)methoxy)-8,9-dihydro-11H-7-oxa-1,3,6,11-tetraazaspiro[cycloocta[de]naphthalene-10,1′-cyclopropan]-1(11a), 2,3a, 4,6-pentaen-5-yl)-4-(trifluoromethyl)aniline] | 0.73 | 92 | – | – |
| CNCC(C)N1CCCOc2nc(-c3cc(N)cc(Cl)c3C(F)(F)F)c(F)c3nc(OC[C@@]45CCCN4C[C@H](F)C5)nc1c23 (stereo partly drawn) [Example 39, 3-chloro-5-(4-fluoro-2-(((2R,7aS)-2-fluorotetrahydro-1H-pyrrolizin-7a(5H)-yl)methoxy)-11-(1-(methylamino)propan-2-yl)-8,9,10,11-tetrahydro-7-oxa-1,3,6,11-tetraazacycloocta[de]naphthalen-5-yl)-4-(trifluoromethyl)aniline] | 3.9 | 1780 | – | – |
| CN1c2nc(OC[C@@]34CCCN3C[C@H](F)C4)nc3c(F)c(-c4cc(N)cc(Cl)c4C(F)(F)F)nc(c23)OCC2CNCC21 (stereo partly drawn) [Example 27, 3-chloro-5-(4-fluoro-2-(((2R,7aS)-2-fluorotetrahydro-1H-pyrrolizin-7a(5H)-yl)methoxy)-12-methyl-8a, 9,10,11,11a, 12-hexahydro-8H-7-oxa-1,3,6,10,12-pentaazacyclopenta[5,6]cycloocta[1,2,3-de]naphthalen-5-yl)-4-(trifluoromethyl)aniline] | 0.95 | 836 | – | – |
| CNCCN1CCCOc2nc(-c3cc(N)cc(Cl)c3C(F)(F)F)c(F)c3nc(OC[C@@]45CCCN4C[C@H](F)C5)nc1c23 [Example 17, 3-chloro-5-(4-fluoro-2-(((2R,7aS)-2-fluorotetrahydro-1H-pyrrolizin-7a(5H)-yl)methoxy)-11-(2-(methylamino)ethyl)-8,9,10,11-tetrahydro-7-oxa-1,3,6,11-tetraazacycloocta[de]naphthalen-5-yl)-4-(trifluoromethyl)aniline] | 9.6 | – | – | – |
| CN(C)CCN1c2nc(OC[C@@]34CCCN3C[C@H](F)C4)nc3c(F)c(-c4cc(N)cc(Cl)c4C(F)(F)F)nc(c23)OCC12CCC2 [Example 37, 3-chloro-5-(10′-(2-(dimethylamino)ethyl)-4′-fluoro-2′-(((2R,7aS)-2-fluorotetrahydro-1H-pyrrolizin-7a(5H)-yl)methoxy)-8′H, 10′H-7′-oxa-1′,3′,6′,10′-tetraazaspiro[cyclobutane-1,9′-cyclohepta[de]naphthalen]-1′(10a′), 2′,3a′, 3 al′(6a′), 5′-pentaen-5′-yl)-4-(trifluoromethyl)aniline] | 2.3 | 639 | – | – |
| Nc1cc(Cl)c(C(F)(F)F)c(-c2nc3c4c(nc(OC[C@@]56CCCN5C[C@H](F)C6)nc4c2F)N([C@@H]2CCNC2)CCCO3)c1 [Example 41, 3-chloro-5-(4-fluoro-2-(((2R,7aS)-2-fluorotetrahydro-1H-pyrrolizin-7a(5H)-yl)methoxy)-11-((R)-pyrrolidin-3-yl)-8,9,10,11-tetrahydro-7-oxa-1,3,6,11-tetraazacycloocta[de]naphthalen-5-yl)-4-(trifluoromethyl)aniline] | 34 | – | – | – |
| C[C@@H]1CCOc2nc(-c3cc(N)cc(Cl)c3C(F)(F)F)c(F)c3nc(OC[C@@]45CCCN4C[C@H](F)C5)nc(c23)N1C [Example 26, 3-chloro-5-((R)-4-fluoro-2-(((2R,7aS)-2-fluorotetrahydro-1H-pyrrolizin-7a(5H)-yl)methoxy)-10,11-dimethyl-8,9,10,11-tetrahydro-7-oxa-1,3,6,11-tetraazacycloocta[de]naphthalen-5-yl)-4-(trifluoromethyl)aniline] | – | – | 32 | 0.79 |
| Cc1cc(N)cc(-c2nc3c4c(nc(OC[C@@]56CCCN5C[C@H](F)C6)nc4c2F)N(C)CCO3)c1C(F)(F)F [Example 3, 3-(4-fluoro-2-(((2R,7aS)-2-fluorotetrahydro-1H-pyrrolizin-7a(5H)-yl)methoxy)-10-methyl-9,10-dihydro-8H-7-oxa-1,3,6,10-tetraazacyclohepta[de]naphthalen-5-yl)-5-methyl-4-(trifluoromethyl)aniline] | – | – | 402 | 15 |
| CN1c2nc(OC[C@@]34CCCN3C[C@H](F)C4)nc3c(F)c(-c4cc(N)cc(Cl)c4C(F)(F)F)nc(c23)OCCC12CCC2 [Example 32, 3-chloro-5-(4′-fluoro-2′-(((2R,7aS)-2-fluorotetrahydro-1H-pyrrolizin-7a(5H)-yl)methoxy)-11′-methyl-8′,9′-dihydro-11′H-7′-oxa-1′,3′,6′,11′-tetraazaspiro[cyclobutane-1,10′-cycloocta[de]naphthalen]-1′(11a′), 2′,3a′, 3 al′(6a′), 5′-pentaen-5′-yl)-4-(trifluoromethyl)aniline] | – | – | 133 | 3.4 |
| CN1c2nc(OC[C@@]34CCCN3C[C@H](F)C4)nc3c(F)c(-c4cc(N)c(F)c(Cl)c4C(F)(F)F)nc(c23)O[C@H]2COCC[C@@H]21 [Example 66, 3-chloro-2-fluoro-5-((7aR,11aS)-4-fluoro-2-(((2R,7aS)-2-fluorotetrahydro-1H-pyrrolizin-7a(5H)-yl)methoxy)-12-methyl-7a, 8,10,11,11a, 12-hexahydro-7,9-dioxa-1,3,6,12-tetraazapleiaden-5-yl)-4-(trifluoromethyl)aniline] | – | – | 5.8 | 0.47 |
| CCc1c(F)ccc2cc(O)cc(-c3nc4c5c(nc(OC[C@@]67CCCN6C[C@H](F)C7)nc5c3F)N(C)C(C)CCO4)c12 (stereo partly drawn) [Example 16, 5-ethyl-6-fluoro-4-(4-fluoro-2-(((2R,7aS)-2-fluorotetrahydro-1H-pyrrolizin-7a(5H)-yl)methoxy)-10,11-dimethyl-8,9,10,11-tetrahydro-7-oxa-1,3,6,11-tetraazacycloocta[de]naphthalen-5-yl)naphthalen-2-ol] | – | – | 50 | 1.4 |
| Cc1c(F)c(N)cc(-c2nc3c4c(nc(OC[C@@]56CCCN5C[C@H](F)C6)nc4c2F)N(C)[C@H]2CCOC[C@@H]2O3)c1C(F)(F)F [Example 67, 2-fluoro-5-((7aR,11aS)-4-fluoro-2-(((2R,7aS)-2-fluorotetrahydro-1H-pyrrolizin-7a(5H)-yl)methoxy)-12-methyl-7a, 8,10,11,11a, 12-hexahydro-7,9-dioxa-1,3,6,12-tetraazapleiaden-5-yl)-3-methyl-4-(trifluoromethyl)aniline] | – | – | 12 | 0.65 |
| C#Cc1c(F)ccc2cc(O)cc(-c3cc4c5c(nc(OC[C@@]67CCCN6C[C@H](F)C7)nc5c3F)N(C)CCCO4)c12 [Example 1, 5-ethynyl-6-fluoro-4-(11-fluoro-2-(((2R,7aS)-2-fluorotetrahydro-1H-pyrrolizin-7a(5H)-yl)methoxy)-4-methyl-4,5,6,7-tetrahydro-[1,5]oxazocino[4,3,2-de]quinazolin-10-yl)naphthalen-2-ol] | – | – | 624 | 3.2 |
